According to the Kinase Knowledgebase extract (Sharma et al. 2016):

Experiments:
MAPK14 [1] = target: MAPK14 (UniProt Q16539); experiment: MAPK14 Kinase Inhibition
MAPK14 [2] = target: MAPK14 (UniProt Q16539); experiment: TNF Inhibition (In Vivo)
MAPK14 [3] = target: MAPK14 (UniProt Q16539); experiment: MAPK14 Kinase Binding Inhibition

Sequence of MAPK14 (Q16539 whole entry, looked up): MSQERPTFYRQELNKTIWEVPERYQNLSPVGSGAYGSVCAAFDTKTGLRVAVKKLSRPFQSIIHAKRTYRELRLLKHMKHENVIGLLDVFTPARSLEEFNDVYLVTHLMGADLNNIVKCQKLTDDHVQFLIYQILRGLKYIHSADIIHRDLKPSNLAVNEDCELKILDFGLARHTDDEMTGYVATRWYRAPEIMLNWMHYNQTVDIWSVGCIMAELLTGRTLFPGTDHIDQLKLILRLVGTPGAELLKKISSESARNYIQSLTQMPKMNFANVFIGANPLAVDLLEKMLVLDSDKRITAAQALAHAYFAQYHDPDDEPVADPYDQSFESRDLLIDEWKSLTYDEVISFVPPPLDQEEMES

Row | IC50 (MAPK14 [1]) [µM] | inhibition (MAPK14 [3]) [µM] | SMILES | inhibition (MAPK14 [2]) [µM]
1 | < 50 |  | CSc1ccc(-c2ncn(C3CCNCC3)c2-c2ccnc(Nc3ccccc3)n2)cc1 | 
2 |  | < 50 | CN1CCC(n2cnc(-c3ccc(F)cc3)c2-c2ccnc(NCCO)n2)CC1 | < 50
3 |  | < 50 | CCOC(=O)N1CCC(Nc2nccc(-c3c(-c4ccc(F)cc4)ncn3C3CCN(C)CC3)n2)CC1 | 
4 |  | < 50 | CN1CCC(n2cnc(-c3ccc(F)cc3)c2-c2ccnc(NCc3cccc4ccccc34)n2)CC1 | < 50
5 | < 50 |  | Oc1cccc(Nc2nccc(-c3c(-c4ccc(F)cc4)ncn3C3CCNCC3)n2)c1 | 
6 |  | < 50 | Fc1ccc(cc1)c2ncn(C3CCNCC3)c2c4ccnc(NCCCN5=CNC=C5)n4 | 
7 | < 50 |  | Fc1ccc(-c2ncn(C3CCNCC3)c2-c2ccnc(Nc3ccc(F)c(F)c3)n2)cc1 | 
8 |  | < 50 | CN1CCC(n2cnc(-c3ccc(F)cc3)c2-c2ccnc(Nc3ccccc3)n2)CC1 | < 50
9 | < 50 |  | Fc1ccc(-c2ncn(C3CCNCC3)c2-c2ccnc(Nc3ccccc3F)n2)cc1 | < 50
10 |  | < 50 | CN1CCC(n2cnc(-c3ccc(F)cc3)c2-c2ccnc(NC3CCNCC3)n2)CC1 | 
11 | < 50 |  | COc1cccc(Nc2nccc(-c3c(-c4ccc(F)cc4)ncn3C3CCNCC3)n2)c1 | 
12 | < 50 |  | Fc1ccc(Nc2nccc(-c3c(-c4ccc(F)cc4)ncn3C3CCNCC3)n2)cc1 | < 50
13 |  |  | Fc1ccc(-c2ncn(C3CCNCC3)c2-c2ccnc(NCCCn3ccnc3)n2)cc1 | < 50
14 |  | < 50 | CN1CCC(n2cnc(-c3ccc(F)cc3)c2-c2ccnc(NC3CCSCC3)n2)CC1 | 
15 |  | < 50 | CN1CCC(n2cnc(-c3ccc(F)cc3)c2-c2ccnc(NCc3ccccc3)n2)CC1 | < 50
16 |  | < 50 | CN1CCC(n2cnc(-c3ccc(F)cc3)c2-c2ccnc(NCCc3c[nH]c4ccc(Cl)cc34)n2)CC1 | 
17 | < 50 |  | Fc1ccc(-c2ncn(C3CCNCC3)c2-c2ccnc(Nc3cccc(F)c3)n2)cc1 | < 50
18 |  | < 50 | CCOCCCNc1nccc(-c2c(-c3ccc(F)cc3)ncn2C2CCNCC2)n1 | 
19 |  | < 50 | O=C1CCC(n2cnc(-c3ccc(F)cc3)c2-c2ccnc(Nc3ccccc3)n2)CC1 | < 50

Row | IC50 (MAPK14 [1]) [µM] | inhibition (MAPK14 [3]) [µM] | SMILES | inhibition (MAPK14 [2]) [µM]
20 | < 50 |  | Fc1ccc(-c2ncn(C3CCNCC3)c2-c2ccnc(Nc3cccc(C(F)(F)F)c3)n2)cc1 | 
21 | < 50 |  | CCOC(=O)N1CCC(n2cnc(-c3ccc(F)cc3)c2-c2ccnc(Nc3cccc(OCc4ccccc4)c3)n2)CC1 | 
22 | < 50 |  | C[S+]([O-])c1ccc(-c2ncn(C3CCNCC3)c2-c2ccnc(Nc3ccccc3)n2)cc1 (stereo not given) | 
23 |  | < 50 | CC1(C)CC(n2cnc(-c3ccc(F)cc3)c2-c2ccnc(NCCO)n2)CC(C)(C)N1 | < 50
24 |  | 50 | NCCNc1nccc(-c2c(-c3ccc(F)cc3)ncn2C2CCNCC2)n1 | 
25 |  | < 50 | CN1CCC(n2cnc(-c3ccc(F)cc3)c2-c2ccnc(Nc3cccc(Br)c3)n2)CC1 | 
26 |  | < 50 | CC1(C)CC(n2cnc(-c3ccc(F)cc3)c2-c2ccnc(Nc3ccccc3)n2)CC(C)(C)N1 | 
27 |  | < 50 | CN1CCC(n2cnc(-c3ccc(F)cc3)c2-c2ccnc(NCc3ccc4c(c3)OCO4)n2)CC1 | 
28 |  | < 50 | Fc1ccc(-c2ncn(C3CCNCC3)c2-c2ccnc(Nc3ccccc3)c2)cc1 | < 50
29 |  | < 50 | CN1CCC(n2cnc(-c3ccc(F)cc3)c2-c2ccnc(NC3CC(C)(C)NC(C)(C)C3)n2)CC1 | 
30 | < 50 |  | CCOC(=O)N1CCC(n2cnc(-c3ccc(F)cc3)c2-c2ccnc(Nc3ccc(OCc4ccccc4)cc3)n2)CC1 | 
31 | < 50 |  | COc1ccc(Nc2nccc(-c3c(-c4ccc(F)cc4)ncn3C3CCNCC3)n2)cc1 | 
32 |  | < 50 | CN1CCC(n2cnc(-c3ccc(F)cc3)c2-c2ccnc(NCc3cccc(Cl)c3)n2)CC1 | < 50
33 |  | < 50 | O[C@H]1CC[C@H](n2cnc(-c3ccc(F)cc3)c2-c2ccnc(Nc3ccccc3)n2)CC1 | 
34 |  | < 50 | Fc1ccc(-c2ncn(C3CCNCC3)c2-c2ccnc(Nc3ccccc3)n2)cc1 | < 50
35 |  | < 50 | CN1CCC(n2cnc(-c3ccc(F)cc3)c2-c2ccnc(NCCCN3CCOCC3)n2)CC1 | 
36 |  | < 50 | CN1CCC(n2cnc(-c3ccc(F)cc3)c2-c2ccnc(NC3CCN(Cc4ccccc4)CC3)n2)CC1 | 
37 | < 50 |  | Oc1ccc(Nc2nccc(-c3c(-c4ccc(F)cc4)ncn3C3CCNCC3)n2)cc1 | 
38 | < 50 |  | COc1ccccc1Nc1nccc(-c2c(-c3ccc(F)cc3)ncn2C2CCNCC2)n1 | 
